# Measured values published in patent US20240092758A1, “IMIDAZOLO INDAZOLE COMPOUNDS AS JAK INHIBITORS” (Theravance Biopharma R&D IP, LLC, priority 2021, published 2024).
# What was measured:
# JAK1 = JAK1 (Homo sapiens (Human), UniProt P23458); experiment: Biochemical JAK kinase assay (LanthaScreen), JAK1; settings: for Ki: read-out: JAK1 pKi (converted)
# Method in brief: (§1)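 LanthaScreen format: phospho-STAT1 (pTyr701) detected with 2 nM Tb antibody after 10 mM EDTA quench. Kinase step used Km-level ATP and 200 nM STAT1 peptide, 1 h at ambient after 1 h pre-incubation. Inhibition fitted to IC50, reported as pKi.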
# JAK2 = JAK2 (Homo sapiens (Human), UniProt O60674); experiment: Biochemical JAK kinase assay (LanthaScreen), JAK2; settings: for Ki: read-out: JAK2 pKi (converted)
# Method in brief: as §1
# [1] = test system: IL-13 induced STAT6 phosphorylation in BEAS-2B human lung epithelial cells; experiment: Cellular JAKI potency assay (BEAS-2B); format: cell-based; settings: BEAS-2B cells; for IC50: Homo sapiens, BEAS-2B, read-out: BEAS2B pIC50 (converted)
# Method in brief: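 BEAS-2B cells were preincubated with compound (0.1% DMSO) in HBSS/HEPES/BSA for 1 h at 37 °C, then stimulated with IL-13 (80 ng/mL before addition) for 30 min. After lysis, pSTAT6 (Tyr641) was quantified by AlphaLISA SureFire; IC50 from a 4-parameter fit of percent inhibition, reported as pIC50.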
# JAK1, sequence (P23458 whole entry): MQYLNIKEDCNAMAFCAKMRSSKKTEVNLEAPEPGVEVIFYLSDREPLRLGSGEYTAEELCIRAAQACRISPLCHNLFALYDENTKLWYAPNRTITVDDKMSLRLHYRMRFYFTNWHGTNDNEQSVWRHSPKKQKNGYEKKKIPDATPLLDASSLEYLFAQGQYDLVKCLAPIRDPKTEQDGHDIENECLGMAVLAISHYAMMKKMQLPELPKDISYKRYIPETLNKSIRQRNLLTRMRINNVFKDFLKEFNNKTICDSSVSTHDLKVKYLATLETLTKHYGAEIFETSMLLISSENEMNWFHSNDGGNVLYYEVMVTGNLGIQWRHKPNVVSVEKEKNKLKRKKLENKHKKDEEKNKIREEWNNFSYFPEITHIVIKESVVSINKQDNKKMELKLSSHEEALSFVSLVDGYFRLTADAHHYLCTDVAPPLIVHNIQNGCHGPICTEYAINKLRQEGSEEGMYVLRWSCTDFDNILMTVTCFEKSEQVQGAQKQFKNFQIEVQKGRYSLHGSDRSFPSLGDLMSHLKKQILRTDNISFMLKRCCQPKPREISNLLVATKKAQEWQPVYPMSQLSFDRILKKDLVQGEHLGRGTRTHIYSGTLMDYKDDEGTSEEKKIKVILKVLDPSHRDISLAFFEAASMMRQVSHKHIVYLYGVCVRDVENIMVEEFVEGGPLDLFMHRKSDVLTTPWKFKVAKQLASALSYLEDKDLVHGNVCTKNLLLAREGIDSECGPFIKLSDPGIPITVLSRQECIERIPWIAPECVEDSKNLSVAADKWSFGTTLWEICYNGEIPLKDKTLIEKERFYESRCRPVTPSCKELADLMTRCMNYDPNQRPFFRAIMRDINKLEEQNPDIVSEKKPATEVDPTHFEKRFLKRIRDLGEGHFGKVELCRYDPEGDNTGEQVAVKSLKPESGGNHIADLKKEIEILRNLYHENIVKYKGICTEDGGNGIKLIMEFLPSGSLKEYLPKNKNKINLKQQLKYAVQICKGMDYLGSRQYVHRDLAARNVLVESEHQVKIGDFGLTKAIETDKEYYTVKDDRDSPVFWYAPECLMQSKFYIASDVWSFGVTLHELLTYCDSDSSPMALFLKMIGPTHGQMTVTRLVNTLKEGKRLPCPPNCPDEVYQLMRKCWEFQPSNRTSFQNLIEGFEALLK
# JAK2, sequence (O60674 whole entry): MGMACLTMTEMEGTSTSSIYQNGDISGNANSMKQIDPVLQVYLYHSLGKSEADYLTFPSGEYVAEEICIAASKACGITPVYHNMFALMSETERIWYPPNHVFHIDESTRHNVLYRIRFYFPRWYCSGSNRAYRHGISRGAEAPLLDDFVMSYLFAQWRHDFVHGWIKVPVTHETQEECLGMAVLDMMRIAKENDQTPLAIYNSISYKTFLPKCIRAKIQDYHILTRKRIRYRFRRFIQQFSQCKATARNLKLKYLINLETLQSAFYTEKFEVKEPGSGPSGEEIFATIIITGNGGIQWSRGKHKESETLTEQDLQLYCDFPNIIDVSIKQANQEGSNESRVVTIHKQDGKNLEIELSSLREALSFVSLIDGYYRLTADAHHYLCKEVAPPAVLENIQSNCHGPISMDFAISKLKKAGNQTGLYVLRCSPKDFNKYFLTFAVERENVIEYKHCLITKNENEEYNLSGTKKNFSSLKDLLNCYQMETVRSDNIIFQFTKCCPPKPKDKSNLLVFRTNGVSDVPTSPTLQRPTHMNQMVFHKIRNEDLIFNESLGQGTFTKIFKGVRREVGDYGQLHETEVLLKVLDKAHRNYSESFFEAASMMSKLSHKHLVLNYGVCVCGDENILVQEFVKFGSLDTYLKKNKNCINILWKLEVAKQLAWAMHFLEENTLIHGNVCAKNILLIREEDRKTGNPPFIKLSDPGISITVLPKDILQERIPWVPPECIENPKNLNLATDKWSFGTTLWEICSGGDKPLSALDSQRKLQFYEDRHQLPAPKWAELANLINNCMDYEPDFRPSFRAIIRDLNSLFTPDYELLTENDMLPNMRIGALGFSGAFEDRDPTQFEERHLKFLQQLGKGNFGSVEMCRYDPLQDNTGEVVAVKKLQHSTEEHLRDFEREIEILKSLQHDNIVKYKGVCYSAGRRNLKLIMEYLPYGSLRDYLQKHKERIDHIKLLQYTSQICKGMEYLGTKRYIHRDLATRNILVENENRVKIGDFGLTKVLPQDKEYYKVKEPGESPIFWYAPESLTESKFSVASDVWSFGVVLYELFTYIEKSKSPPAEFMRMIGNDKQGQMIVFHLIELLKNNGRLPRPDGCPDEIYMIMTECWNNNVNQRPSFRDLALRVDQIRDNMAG
SMILES,Ki (JAK1) [nM],Ki (JAK2) [nM],IC50 [1] [nM],JAK2 pKi (JAK2),JAK1 pKi (JAK1),BEAS2B pIC50 [1]
CCc1cc(O)ccc1-c1ccc2c(-c3nc(C4=C[C@H](CC#N)NC4)c[nH]3)n[nH]c2c1F [Example 247],0.1 to 1,0.1 to 1,10 to 31.6,,,
CCc1cc(O)ccc1-c1ccc2c(-c3nc(C4=C(C(=O)OC)CCNC4)c[nH]3)n[nH]c2c1F [Example 295],0.1 to 1,,3.16 to 10,A (A represents a pKi value ≥10 (Ki≤0.1 nM)),,
CCc1cc(O)ccc1-c1ccc2c(-c3nc(C4=CCN(C5CCNC5=O)CC4)c[nH]3)n[nH]c2c1F (stereo not drawn) [Example 84],0.1 to 1,0.1 to 1,31.6 to 100,,,
CCc1cc(O)ccc1-c1ccc2c(-c3nc(C4=CCN[C@@H](CO)C4)c[nH]3)n[nH]c2c1F [Example 347],,,31.6 to 100,A (A represents a pKi value ≥10 (Ki≤0.1 nM)),A (A represents a pKi value ≥10 (Ki≤0.1 nM)),
CCc1cc(O)ccc1-c1ccc2c(-c3nc(C4=CC[C@H](C)N(CCO)C4)c[nH]3)n[nH]c2c1F [Example 257],0.1 to 1,0.1 to 1,10 to 31.6,,,
CCc1cc(O)ccc1-c1ccc2c(-c3nc(C4=CCN(C(=O)[C@H](COC)NC)C4)c[nH]3)n[nH]c2c1F [Example 375],0.1 to 1,,31.6 to 100,A (A represents a pKi value ≥10 (Ki≤0.1 nM)),,
Oc1ccc(-c2ccc3c(-c4nc(C5=CCNC5)c[nH]4)n[nH]c3c2F)c(CC(F)(F)F)c1 [Example 357],0.1 to 1,0.1 to 1,31.6 to 100,,,
CCc1cc(O)ccc1-c1ccc2c(-c3nc(C4=CCN(CCS(=O)(=O)NC)CC4)c[nH]3)n[nH]c2c1 [Example 80],0.1 to 1,,10 to 31.6,A (A represents a pKi value ≥10 (Ki≤0.1 nM)),,
CCc1cc(O)ccc1-c1ccc2c(-c3nc(C4=CCCN(CCNC(=O)C(C)C)C4)c[nH]3)n[nH]c2c1 [Example 110],0.1 to 1,0.1 to 1,10 to 31.6,,,
CCc1cc(O)ccc1-c1ccc2c(-c3nc(C4=CCCN(S(C)(=O)=O)C4)c[nH]3)n[nH]c2c1 [Example 160],0.1 to 1,0.1 to 1,10 to 31.6,,,
CCCN1CC=C(c2c[nH]c(-c3n[nH]c4c(F)c(-c5ccc(O)cc5CC)ccc34)n2)C1 [Example 288],,,3.16 to 10,A (A represents a pKi value ≥10 (Ki≤0.1 nM)),A (A represents a pKi value ≥10 (Ki≤0.1 nM)),
CCc1cc(O)ccc1-c1ccc2c(-c3nc(C4=CCN([C@H]5CC[C@@H](O)CC5)C4)c[nH]3)n[nH]c2c1F [Example 129],,,,A (A represents a pKi value ≥10 (Ki≤0.1 nM)),A (A represents a pKi value ≥10 (Ki≤0.1 nM)),A (A represents a pIC50 value between 8 (included) and 8.5)
CCOC(=O)C[C@H]1C=C(c2c[nH]c(-c3n[nH]c4c(F)c(-c5ccc(O)cc5CC)ccc34)n2)CN1 [Example 286],0.1 to 1,0.1 to 1,3.16 to 10,,,
CCc1cc(O)ccc1-c1ccc2c(-c3nc(C4=C[C@H](CC(=O)N5CCCC5)NC4)c[nH]3)n[nH]c2c1F [Example 360],,,31.6 to 100,A (A represents a pKi value ≥10 (Ki≤0.1 nM)),A (A represents a pKi value ≥10 (Ki≤0.1 nM)),
CCc1cc(O)ccc1-c1ccc2c(-c3nc(C4=CCN(CC(=O)NC)CC4)c[nH]3)n[nH]c2c1 [Example 78],0.1 to 1,,10 to 31.6,A (A represents a pKi value ≥10 (Ki≤0.1 nM)),,
CCc1cc(O)ccc1-c1ccc2c(-c3nc(C4=CC[C@H](C)N(CC(=O)NC)C4)c[nH]3)n[nH]c2c1F [Example 275],0.1 to 1,0.1 to 1,10 to 31.6,,,
CCc1cc(O)ccc1-c1ccc2c(-c3nc(C4=CCNC(C)(C)C4)c[nH]3)n[nH]c2c1 [Example 376],0.1 to 1,0.1 to 1,31.6 to 100,,,
CCc1cc(O)ccc1-c1ccc2c(-c3nc(C4=CCCN(CCCOC)C4)c[nH]3)n[nH]c2c1 [Example 65],0.1 to 1,0.1 to 1,3.16 to 10,,,

SMILES,Ki (JAK1) [nM],Ki (JAK2) [nM],IC50 [1] [nM],JAK2 pKi (JAK2),JAK1 pKi (JAK1),BEAS2B pIC50 [1]
CCc1cc(O)ccc1-c1ccc2c(-c3nc(C4=C[C@H](CC#N)NC4)c[nH]3)n[nH]c2c1 [Example 243],,,3.16 to 10,A (A represents a pKi value ≥10 (Ki≤0.1 nM)),A (A represents a pKi value ≥10 (Ki≤0.1 nM)),
CCc1cc(O)ccc1-c1ccc2c(-c3nc(C4=CCNC(C(C)C)C4)c[nH]3)n[nH]c2c1F (stereo not drawn) [Example 368],0.1 to 1,0.1 to 1,31.6 to 100,,,
CCc1cc(O)ccc1-c1ccc2c(-c3nc(C4=CCN([C@H]5CC[C@](C)(O)CC5)C4)c[nH]3)n[nH]c2c1F [Example 330],,0.1 to 1,10 to 31.6,,A (A represents a pKi value ≥10 (Ki≤0.1 nM)),
CCc1cc(O)ccc1-c1ccc2c(-c3nc(C4=CC[C@H](C)N(CCN5CCOCC5)C4)c[nH]3)n[nH]c2c1F [Example 270],0.1 to 1,0.1 to 1,10 to 31.6,,,
CCc1cc(O)ccc1-c1ccc2c(-c3nc(C4=CCCN(CCO)C4)c[nH]3)n[nH]c2c1 [Example 41],0.1 to 1,,3.16 to 10,A (A represents a pKi value ≥10 (Ki≤0.1 nM)),,
CCc1cc(O)ccc1-c1ccc2c(-c3nc(C4=CCN(C(=O)COCCN(C)C)C4)c[nH]3)n[nH]c2c1F [Example 374],0.1 to 1,,31.6 to 100,A (A represents a pKi value ≥10 (Ki≤0.1 nM)),,
CCc1cc(O)ccc1-c1ccc2c(-c3nc(C4=C[C@@H](CC#N)NC4)c[nH]3)n[nH]c2c1F [Example 249],0.1 to 1,0.1 to 1,10 to 31.6,,,
CCc1cc(O)ccc1-c1ccc2c(-c3nc(C4=CCN(CCC5(O)CC5)CC4)c[nH]3)n[nH]c2c1F [Example 322],0.1 to 1,0.1 to 1,10 to 31.6,,,
CCc1cc(O)ccc1-c1ccc2c(-c3nc(C4=CC(C)(C)NC4)c[nH]3)n[nH]c2c1F [Example 336],0.1 to 1,0.1 to 1,10 to 31.6,,,
CCc1cc(O)ccc1-c1ccc2c(-c3nc(C4=CCN([C@H]5CC[C@@](O)(C(F)(F)F)CC5)C4)c[nH]3)n[nH]c2c1F [Example 359],1 to 10,0.1 to 1,31.6 to 100,,,
CCc1cc(O)ccc1-c1ccc2c(-c3nc(C4=CCCN(CCNC(C)=O)C4)c[nH]3)n[nH]c2c1 [Example 109],0.1 to 1,0.1 to 1,10 to 31.6,,,
CCc1cc(O)ccc1-c1ccc2c(-c3nc(C4=C[C@H](CO)N(CCO)C4)c[nH]3)n[nH]c2c1F [Example 263],,,10 to 31.6,A (A represents a pKi value ≥10 (Ki≤0.1 nM)),A (A represents a pKi value ≥10 (Ki≤0.1 nM)),
CCc1cc(O)ccc1-c1ccc2c(-c3nc(C4=C[C@H](CC(=O)N5CCOCC5)NC4)c[nH]3)n[nH]c2c1F [Example 361],0.1 to 1,,31.6 to 100,A (A represents a pKi value ≥10 (Ki≤0.1 nM)),,
CCc1cc(O)c(C)cc1-c1ccc2c(-c3nc(C4=CCNCC4)c[nH]3)n[nH]c2c1F [Example 371],1 to 10,1 to 10,31.6 to 100,,,
CCc1cc(O)ccc1-c1ccc2c(-c3nc(C4=CCN(CC5CC5)C4)c[nH]3)n[nH]c2c1F [Example 290],,,3.16 to 10,A (A represents a pKi value ≥10 (Ki≤0.1 nM)),A (A represents a pKi value ≥10 (Ki≤0.1 nM)),
CCc1cc(O)ccc1-c1ccc2c(-c3nc(C4=CCN(C(=O)OC)CC4)c[nH]3)n[nH]c2c1F [Example 156],1 to 10,0.1 to 1,31.6 to 100,,,
CCc1cc(O)ccc1-c1ccc2c(-c3nc(C4=CCC(C)(C)NC4)c[nH]3)n[nH]c2c1F [Example 306],0.1 to 1,0.1 to 1,10 to 31.6,,,
CCc1cc(O)ccc1-c1ccc2c(-c3nc(C4=C[C@@H](CC(=O)OC)NC4)c[nH]3)n[nH]c2c1F [Example 254],0.1 to 1,0.1 to 1,10 to 31.6,,,
